Experimental data as given in patent US9504756B2, “Self-stabilizing linker conjugates” (priority 2012, dated 2016).

Assay: Thiosuccinimide ring hydrolysis of IgG1 conjugates monitored by electrospray mass spectrometry
Type: physicochemical
Settings: conjugated to reduced human IgG1; pH 7.4, 22° C.
From the text: The hydrolysis reaction rates of maleimido drug linkers following conjugation to antibody cysteines can be determined by mass spectrometry, as the hydrolyzed product has a molecular weight 18 daltons greater than the unhydrolyzed conjugate. Reduction of the interchain disulfides of a human IgG1 creates a single reduced cysteine on the light chain and three reduced cysteines on the heavy chain. The self-stabilizing maleimide drug-linker can then be conjugated to the reduced antibody at pH 7.4 and 22° C. and introduced to a high-resolution electrospray mass spectrometer via a reversed-phase HPLC column which separates the conjugated light and heavy chains. The masses of the conjugated light and heavy chains can thus be measured, and the peak intensities determined by standard mass spectrometry data processing software (e.g., MassLynx). By performing a series of injections over time, the disappearance of the peak corresponding to the mass of the original, unhydrolyzed conjugate and the appearance of the peak corresponding to the mass of the hydrolyzed conjugate can be monitored, the intensities of the peaks determined, and the percentage of hydrolyzed conjugate calculated at each timepoint. By plotting the hydrolysis percentage versus time, a curve is generated (e.g., using PRISM) which can be fit to a standard equation for exponential phenomena which includes a parameter for t1/2. […]

## diaminopropionyl maleimide
  time for hydrolysis reaction approaching 100% completion: about 2 hours
